The target of one assay is T1, Tyrosinase (Agaricus bisporus, UniProt O42713).
T1 sequence (O42713 whole entry): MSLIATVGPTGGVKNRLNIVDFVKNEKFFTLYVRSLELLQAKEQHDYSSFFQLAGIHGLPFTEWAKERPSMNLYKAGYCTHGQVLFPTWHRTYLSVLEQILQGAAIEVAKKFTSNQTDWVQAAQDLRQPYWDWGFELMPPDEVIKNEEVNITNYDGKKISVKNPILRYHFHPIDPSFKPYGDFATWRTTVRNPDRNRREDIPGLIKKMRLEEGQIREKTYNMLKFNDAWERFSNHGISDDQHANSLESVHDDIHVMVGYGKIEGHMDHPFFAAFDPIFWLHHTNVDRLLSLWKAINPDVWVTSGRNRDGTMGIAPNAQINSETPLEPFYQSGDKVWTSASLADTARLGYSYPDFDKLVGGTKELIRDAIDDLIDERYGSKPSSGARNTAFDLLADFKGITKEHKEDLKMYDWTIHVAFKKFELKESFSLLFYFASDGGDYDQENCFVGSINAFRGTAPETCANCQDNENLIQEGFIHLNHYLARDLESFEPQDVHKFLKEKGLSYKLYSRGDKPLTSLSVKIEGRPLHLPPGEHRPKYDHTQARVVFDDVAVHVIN

For assay [1], the system named is B16. The assay is described as follows: cells. The note with it: Mus musculus, B16, 72 h, read-out: INH.
Description: Inhibition of alpha-MSH -stimulated melanogenesis in mouse B16 cells assessed as melanin release at 10 uM after 72 hrs by spectrometric analysis
For assay [2], the system named is B16. The assay is described as follows: cells. The settings on record: Mus musculus, B16, 72 h.
Description: Inhibition of alpha-MSH -stimulated melanogenesis in mouse B16 cells assessed as melanin release after 72 hrs by spectrometric analysis

pIC50: −log10 of the molar value.

Description for Tyrosinase: Inhibition of mushroom tyrosinase activity using L-tyrosine as substrate by spectrometric analysis

The term pIC50 denotes −log10 of the IC50, conventionally taken in molar units. Lower therefore signals a large IC50. The compound `CCc1ccccc1NC(N)=S` showed a pIC50 at Tyrosinase of 4.57.

Compound `NC(=S)NCc1ccccc1` gave a pIC50 against Tyrosinase of 4.60. The compound `NC(=S)NCCc1ccccc1` showed a pIC50 against Tyrosinase of less than 4.00.

In the case of `NC(=S)NCCCc1ccccc1`, at Tyrosinase, the negative logarithm of the IC50 (pIC50) was 4.19. The compound `Cc1ccc(NC(N)=S)cc1` showed a pIC50 on Tyrosinase of 5.85. Same read-out and setting: the value for `CCc1ccc(NC(N)=S)cc1` was 6.10. Take `CC(C)(C)c1ccc(NC(N)=S)cc1`: the pIC50 on Tyrosinase was 5.77. For the compound `Cc1cccc(NC(N)=S)c1`, the negative-log IC50 (pIC50) at Tyrosinase is 6.22. Turning to `Cc1ccccc1NC(N)=S`, the pIC50 at Tyrosinase is 6.08. Same read-out and setting: the value for `CC(C)(C)c1ccccc1NC(N)=S` was less than 4.00; that for `S=C1NCc2ccccc2N1` was less than 4.00. `S=C(NCCc1ccccc1)Nc1ccccc1`: the pIC50 was less than 4.00 at Tyrosinase and 5.66 with B16 [2]. Further, the inhibition at 10 µM in the assay on B16 [1] was greater than 100%. Consider `S=C(NCCCc1ccccc1)Nc1ccccc1`, for which the results for the pIC50 against Tyrosinase and with B16 [2] were less than 4.00 and 5.74, respectively. Also, the inhibition at 10 µM in the assay with B16 [1] is greater than 100%.

In the case of `COc1ccc(NC(S)=Nc2ccccc2)cc1`, the pIC50 was less than 4.00 against Tyrosinase and 5.09 in the assay with B16 [2]. Also, the inhibition at 10 µM in the assay with B16 [1] is 59%. With `CNC(=S)Nc1ccccc1`, the pIC50 on Tyrosinase was less than 4.00; with B16 [2], 4.46. In addition, in the assay with B16 [1], the inhibition at 10 µM amounted to 30%. The like results for `Cc1ccc(NC(=S)Nc2ccccc2)cc1` were, in that order, less than 4.00, 5.20 and 79%. Turning to `S=C(Nc1ccccc1)Nc1ccc(Cl)cc1`, the results for the pIC50 against Tyrosinase and in the assay on B16 [2] were less than 4.00 and 5.47, respectively. In addition, in the assay with B16 [1], the inhibition at 10 µM is greater than 100%. As to `S=C(Nc1ccccc1)NC1CCCCC1`, the results for the pIC50 at Tyrosinase and in the assay with B16 [2] were less than 4.00 and 5.62, respectively. In addition, the inhibition at 10 µM in the assay with B16 [1] was greater than 100%. `S=C(NCc1ccccc1)Nc1ccccc1`: the pIC50 against Tyrosinase is less than 4.00; in the assay on B16 [2] it was 5.33. Besides, the inhibition at 10 µM in the assay with B16 [1] is 91%.

In the case of `CC(C)N(C(=S)Nc1ccccc1)C(C)C`, the results for the pIC50 against Tyrosinase and with B16 [2] were less than 4.00 and 4.71, respectively. For the same compound, in the assay on B16 [1], the inhibition at 10 µM came to 30%. Regarding `Oc1ccc(N/C(S)=N/c2ccccc2)cc1`, the pIC50 is less than 4.00 at Tyrosinase and 4.68 in the assay on B16 [2]. Further, in the assay on B16 [1], the inhibition at 10 µM worked out at 24%. Take `Cc1ccc2c(c1)CN(CCc1ccccc1)C(=S)N2`: the pIC50 at Tyrosinase was less than 4.00.

Values taken from ChEMBL document CHEMBL1909585 (Bioorg Med Chem Lett, 2011).
